Assays:
[1] = system: B-16 mouse melanoma cells; test: Effect of reducing total amount of melanin (whitening); type: cell-based; settings: control group
Protocol: After a sample was added to the culture medium of B-16 mouse melanoma cells, a whitening effect was confirmed by measuring the total amount of melanin at the cellular level (Lotan R., Lotan D. Cancer Res. 40:3345-3350, 1980). Before the experiment, toxicity evaluation was performed on mouse melanoma cells to select a concentration without toxicity, and then whitening evaluation was performed at the concentration.
As a control, arbutin was added to the culture medium at a concentration of 200 ppm. B-16 melanoma cells treated with the sample or arbutin were cultured for 3 days.
Thereafter, the cells were removed from a culture vessel and centrifuged, 1 ml of sodium hydroxide solution (1N concentration) was added to the centrifuged cell pellet, heating was performed at 80° C. for 10 minutes to dissolve melanin, and using a spectrophotometer, absorbance at 400 nm was measured to measure the amount of melanin produced.
The amount of melanin was determined according to absorbance per unit cell number (1×10^6 cells). In addition, based on a non-addition control group, the relative total amount of melanin in the experimental group treated with each sample was calculated as inhibition rate (%), and the results are summarized in the table below.

[2] = system: RAW264.7 cells; test: NO generation inhibitory effect (GRIESS method, LPS stimulus); type: cell-based, mouse
Protocol: To check the anti-inflammatory effect and skin trouble alleviation effect of each sample, an experiment was conducted to evaluate inhibition of nitric oxide (NO) formation by the GRIESS method using the RAW264.7 cell line (ATCC number: CRL-2278).
Specifically, RAW264.7 cells, which are macrophages of mice, were subcultured several times, and the cells were seeded at a cell density of 3×10^5 cells per well in a 24-well plate, followed by cell culture for 24 hours. At this time, as a positive control, the cells were treated with L-NG-monomethylarginine (L-NMMA), a NO-production inhibitor, to a final concentration of 5 ppm and cultured for 30 minutes. Then, the cells were treated with lipopolysaccharide (LPS) as a stimulus at a concentration of 1 μg/ml and cultured for 24 hours. 100 μl of the supernatant was transferred to a 96-well plate, 100 μl of a GRIESS solution was added thereto, and then reaction was performed at room temperature for 10 minutes. Then, absorbance at 540 nm was measured, and the NO inhibitory effect of each sample was determined based on the absorbance, and the results are shown in the table below.

[3] = Antioxidant effect, free radical scavenging (DPPH); type: physicochemical; settings: control group
Protocol: To confirm antioxidant activity, free radical scavenging activity was measured using DPPH. DPPH was purchased from Sigma Co., Ltd. (USA). First, a standard DPPH ethanol solution with a concentration of […] (0.06 mg/ml) was prepared. Then, ethanol was added to each extract and ascorbic acid as a reference material, which is known as an antioxidant, to prepare samples at a concentration of 0.1%, and serial dilution was performed. Then, the sample and the standard DPPH solution were added in the same ratio and stirred, followed by reaction at 37° C. for 30 minutes. Then, absorbance was measured at 517 nm. At this time, addition of ethanol instead of the sample was used as a control. Free radical scavenging ability was measured by calculating IC50, which is half maximal inhibitory concentration, and the results are shown in the following table. IC50 is a general method of expressing free radical scavenging ability as the concentration of ascorbic acid and extract required to remove 50% of free radicals of a non-addition control group.

[4] = system: human dermal fibroblasts; test: Hyaluronic acid synthesis enhancement (Hyaluronan ELISA); type: cell-based; settings: 10 ppb
Protocol: Human-derived fibroblasts (human dermal fibroblasts) cultured in a DMEM culture medium containing 10% fetal bovine serum at a cell density of 1×10^5 cells/mL, and 500 μl of the cell culture medium was added to each well of a 24-well plate. After incubation for 18 hours, the samples were diluted with a DMEM culture medium without fetal bovine serum, and each sample was added at the following concentrations. […] After incubation for 24 hours, the cell culture medium was recovered, and the concentration of hyaluronic acid was measured using a Hyaluronan ELISA kit (R&D Systems).

[5] = system: P. aeruginosa; test: MIC of the hexanediol control, bacteria as named in the tables; type: cell-based; settings: control group
[6] = system: Aspergillus niger; test: Antibacterial effect, MIC, fungi (serial dilution); type: cell-based
Protocol: MICs were measured for fermented cultures of Staphylococcus aureus and Aspergillus niger.
The serial dilution method was used for both bacteria, and the MIC of fermentation culture was confirmed by visually comparing the turbidity between wells after the incubation was completed.
The minimum inhibitory concentration of each extract was expressed as % (w/v), and MIC (%) in each table means % (w/v) unless otherwise stated.

[7] = system: human-derived fibroblasts; test: Promotion of type I collagen synthesis (PICP EIA kit); type: cell-based; settings: 10 ppb
Protocol: Each sample was added to the culture medium of human-derived fibroblasts to confirm the effect of promoting synthesis of type I collagen at the cellular level. Measurement of synthesized collagen was quantified using a Procollagen Type I C-Peptide Enzyme Immuno Assay KIT (PICP ETA kit). To measure the amount of synthesized collagen, each sample was added to a fibroblast culture medium (DMEM culture medium). After cell culture for 48 hours, the culture medium was taken, and the degree of synthesis of type I collagen at each concentration was measured at 450 nm using a spectrophotometer using the PICP ETA kit.
For comparison of the effects, a collagen synthesis level was measured in the same manner for the culture medium of untreated fibroblasts (negative control) and a sample (positive control) to which TGFb was added to a final concentration of 10 ppb. A collagen production increase rate was calculated as the ratio of relative collagen production to the negative control group, and the results are shown in the table below.

Compound: OC[C@H]1O[C@@H](Oc2ccc(O)cc2)[C@H](O)[C@@H](O)[C@@H]1O [Aibutin]
- Whitening Melanin content (%) ([1]; Arbutin 200 ppm): 35%

Compound: OC[C@H]1O[C@@H](Oc2ccc(O)cc2)[C@H](O)[C@@H](O)[C@@H]1O [Arbutin, arbutin]
- Whitening Melanin content (%) ([1]; 200 ppm): 35%

Compound: CNC(=N)NCCC[C@H](N)C(=O)O [L-NMMA, L-NG-monomethylarginine]
- Anti-inflammation Inhibition of NO production (%) ([2]; control group, 5 ppm): 28%
- Anti-inflammation Inhibition of NO production (%) ([2]; control group, L-NMMA 5 ppm): L-NMMA (5 ppm) 28%
- Anti-inflammation Inhibition of NO production (%) ([2]; positive control, 5 ppm): 28%

Compound: O=C1O[C@H]([C@@H](O)CO)C(O)=C1O [Vitamin C, ascorbic acid]
- Anti-oxidation IC50 [3]: 7.5 ppm
- Anti-oxidation IC50 ([3]; DPPH): 7.5 ppm

Compound: EGF: epidermal growth factor, known to promote hyaluronic acid production
- Moisturizing HA synthesis (%) ([4]; control group): 320%
- Moisturizing HA synthesis (%) ([4]; positive control): 320%

Compound: Hexanediol
- Anti-bacteria MIC (%) Bacteria: P. aeruginosa [5]: Bacteria: P. aeruginosa 2%
- Anti-bacteria MIC (%) Bacteria: P. aeruginosa ([5]; P. aeruginosa): Bacteria: P. aeruginosa 2%
- Anti-bacteria MIC (%) Bacteria: P. aeruginosa ([5]; Bacteria: P. aeruginosa): Bacteria: P. aeruginosa 2%
- Anti-bacteria MIC Bacteria: P. aeruginosa ([5]; Bacteria: P. aeruginosa): Bacteria: P. aeruginosa 2%
- Anti-bacteria MIC (%) Fungi ([6]; % (w/v), A. niger, 30° C., 48 hours): Fungi: A. niger 1%
- Anti-bacteria MIC (%) Fungi ([6]; Fungi): Fungi: A. niger 1%
- Anti-bacteria MIC (%) Fungi ([6]; Fungi (A. niger)): Fungi: A. niger 1%
- Anti-bacteria MIC (%) Fungi ([6]; Fungi (A.niger)): Fungi: A.niger 1%
- Anti-bacteria MIC (%) Fungi ([6]; Fungi (control line: A. niger)): Fungi: A. niger 1%
- Anti-bacteria MIC (%) Fungi: A. niger ([6]; control group, A. niger): Fungi: A. niger 1%

Compound: TGFb: positive control for collagen synthesis, 10 ppb
- Anti-wrinkle Collagen synthesis (% of control) ([7]; control group): 25%
- Anti-wrinkle Collagen synthesis (% of control) ([7]; positive control): 25%

Reference: patent publication US12616649B2, “Composition containing plant extracts” (LG HOUSEHOLD & HEALTH CARE LTD., priority 2020, dated 2026)
